# Source: patent US4149007A, “C14 Phenyl-substituted derivatives of prostaglandin analogues” (Miles Laboratories, Inc., priority 1977, dated 1979)
# Assays:
# [1] = system: chick rectum; assay: Cascade assay: chick rectum; format: cell-based; details: in vitro, smooth muscle stimulant ED50 scored
# Description: (§1) (A) effects on the rat stomach, rat colon, chick rectum, and rabbit aorta in vitro (cascade assay);
# (§2) The smooth muscle stimulant effects of test compounds were determined simultaneously in four different tissues that are known to be reactive to naturally occurring prostaglandins. Segments of rat stomach fundus, rat colon, chick rectum and rabbit aortic strip were obtained as described by: Vane, J. R., Brit. J. Pharmacol., 12: 344 (1957); Regoli, D. and Vane, J. R., Brit. J. Pharmacol., 23: 351 (1964); Mann, M. and West, G. B., Brit. J. Pharmacol., 5: 173 (1950); and Furchgott, R. F. and Bhadrakom, R., J. Pharmacol. Exper. Ther., 108: 129 (1953). One end of each preparation was tied to the bottom of a 10 ml tissue chamber and the other to a force displacement transducer (Grass FT-03) for continuous tension recording. The stomach, colon, and rectum segments were stretched to an initial tension of 1 g, while the aortic strip was subjected to 4 g. All preparations were left undisturbed for 1 hour prior to testing. […]
# (§3) Test compounds were diluted from stock solutions so as to administer quantities ranging from 0.0001 to 100,000 ng in a volume of 0.5 ml. […] Maximal increases in tension after each dose were measured and the results were used to plot dose-response curves. […]
# (§4) Activity in each tissue was scored according to the following scale: […]
# [2] = system: rabbit aortic strip; assay: Cascade assay: rabbit aortic strip; format: cell-based; details: in vitro, smooth muscle stimulant ED50 scored
# Description: as §1, §2, §3, §4
# [3] = system: hypertensive rat; assay: Effects on blood pressure in the hypertensive rat; format: in vivo; parameters: key: 0: Not significant at any time interval; 1: Significant at one time interval; 2: Significant at two time intervals; details: 1 mg/kg intraperitoneal; 2, 4, 6 and 9 hours
# Description: (I) effect on systolic blood pressure in the hypertensive rat
# The acute anithypertensive activity of test compounds was determined in rats made hypertensive by the procedure of Grollman (Proc. Soc. Exper Biol. Med., 57: 102 [1944]). Female rats weighing between 60 and 100 g were anesthetized with ether, the right kidney approached through a flank retroperitoneal incision, decapsulated and tied with a figure-of-eight-ligature. The animals were left to recover and two weeks later were again anesthetized and the contralateral kidney removed. […]
# Blood pressure was measured in the tail with an inflatable occluding cuff placed at the base of the extremity and a pulse detector located distally. The cuff was inflated to approximately 300 mmHg and was slowly deflated until pulsations appeared, indicating the level of systolic pressure; diastolic pressure was not recorded by this procedure. […] In all cases, three pressure readings were obtained in succession and mean values were calculated thereof.
# Experiments were carried out in groups of five hypertensive rats in which systolic pressure was determined immediately before and 2, 4, 6 and 9 hours after intraperiotoneal administration of the test compound at a dose of 1 mg/kg. Drugs were diluted from stock solutions with phosphate buffer (Lee et al., Prostaglandins, 3: 29 [1973]), so as to inject this quantity in a volume of 1 ml/kg. […]
# [4] = system: rat colon; assay: Cascade assay: rat colon; format: cell-based; details: in vitro, smooth muscle stimulant ED50 scored
# Description: as §1, §2, §3, §4
# [5] = system: rat uterus; assay: Effects on the rat uterus in vitro; format: cell-based; details: dose producing response 50% that of carbachol
# Description: (B) effect on the rat uterus in vitro;
# The uterine stimulant effect of test compounds was determined in segments of uterus obtained from rats (140-160 g) pretreated subcutaneously with 1 mg/kg of diethylstilbesterol 18 hours before the experiment. The tissues were placed in 10 ml chambers filled with de-Jalon solution at 29° C., were aerated and bubbled with 95% O2 and 5% CO2, and were prepared for isometric recording with force displacement transducers. Preparations were stretched to an initial tension of 1 g and were left undisturbed for 30 minutes. Carbachol (1 mcg/ml) was then added to the bath and a response was recorded. After a ten minute interval the carbachol procedure was repeated. Responses to increasing concentrations of a test compound (0.001 to 10 mcg/ml with one log intervals) were then recorded every 10 minutes. Preparations were washed four times after each response. All doses of compounds were administered in a 0.1 ml volume. Because it has been observed that the magnitude of the second response to carbachol (approximately 10% greater than the first) is close to the maximal response of the tissue, such value was taken as a measure of the sensitivity of a particular segment. Responses to each concentration of the test compound were expressed in terms of percentage of the second response to carbachol and the ED50 (dose producing a response 50% that of carbachol) was calculated graphically.
# Activity was scored according to the following scale: […]
# [6] = system: human platelet; assay: Inhibition of human platelet aggregation in vitro; format: cell-based; details: human platelet rich plasma, collagen-induced
# Description: (E) effect on human platelet aggregation in vitro; and
# The ability of test compounds to inhibit platelet aggregation was determined by a modification of the turbidometric technique of Born, G. V. R. (Nature, 194: 927 [1962]). Blood was collected from human volunteers, who had not ingested aspirin or aspirin-containing products within the preceding two weeks, in heparinized containers and was allowed to settle for one (1) hour. The platelet rich plasma (prp) supernates were collected and pooled. Siliconized glassware was used throughout.
# In a representative assay, 1.9 ml of PRP and 0.2 ml of test compound at the appropriate concentration ([…]), or 0.2 ml of distilled water (control procedure) were placed in sample cuvettes. The cuvettes were placed in a 37° C. incubation block for 15 minutes, and then in a spectrophotometer linked to a strip chart recorder. After 30-60 seconds, 0.2 ml of a solution, prepared by diluting a calf-skin collagen solution 1:9 with Tyrodes' Solution, was added to each cuvette. Platelet aggregation was evidenced by a decrease in optical density.
# An ED50 value was then determined graphically.
# [7] = system: rat stomach fundus; assay: Cascade assay: rat stomach fundus; format: cell-based; details: in vitro, smooth muscle stimulant ED50 scored
# Description: as §1, §2, §3, §4
# [8] = system: rat; assay: Effects on gastric secretion in the rat; format: in vivo; details: pylorus ligated, 1.5 mg/kg s.c. twice (total 3.0 mg/kg), 4 hours
# Description: (F) effect on gastric secretion in the rat;
# A procedure based on that described by Lipman, W. (J. Pharm. Pharmacol., 21: 335 [1968]) was used to assess the influence of test compounds on gastric secretion. Rats of one sex weighing 150 to 200 g were randomly divided into groups of six animals each and fasted for 48 hours previous to the experiments, water being available ad libitum. The animals were anesthetized with ether, the abdomen opened through a midline incision, and the pylorus ligated. Test compounds were diluted from stock solution so as to administer a dose of 1.5 mg/kg in a volume equivalent to 1 ml/kg. Subcutaneous injections were applied immediately after surgery and again 2 hours later, so that a total dose of 3.0 mg/kg was administered. Dilutions were made with phosphate buffer (pH 7.38) as recommended by Lee et al. (Prostaglandins, 3: 29 [1973]) in order to insure adequate stability of drugs at the subcutaneous depot. […]
# Four hours after pyllric ligation the animals were killed with ether, the cardias ligated, and the stomachs removed. The volume of gastric secretion was measured and the contents centrifuged at 5000 rpm for 10 minutes. […]
# Volume and total acid values of the treated group were compared with those of the controls […]. Antisecretory activity was scored according to the following scale: […]
# [9] = variety of mammals; cited from earlier work
# [10] = system: adrenal glands; details: hypophysectomized rats; cited from earlier work
# [11] = system: growth hormone; details: rats; cited from earlier work
# [12] = system: man; details: cited from earlier work
# [13] = system: motor pathways in the central nervous system; details: cited from earlier work
# [14] = system: tracheal smooth muscle; details: in vitro, most mammalian respiratory tracts; cited from earlier work
# [15] = system: smooth muscle of the vas deferens; details: cited from earlier work
# [16] = system: blood platelets; details: in vitro; cited from earlier work
# [17] = system: human platelet; details: compared with compounds of Formula IV; cited from earlier work
structure (smiles),measurement,setting,value
"COC(=O)CCCc1ccccc1CC1C(=O)CCC1/C=C(\c1ccccc1)[C@H](C)O (stereo partly drawn) [Example 4, Methyl 5,6,17,18,19,20-hexanor-4,7,-inter-o-phenylene-14-phenyl-15S-hydroxy-9-oxo-ent-prost-13E-en-1-oate]","Cascade, Rectum: activity value (ED50)",[1],0 (>10000)
same,"Cascade, Aorta: activity value (ED50)",[2],0 (>10000)
same,Blood Pressure Hypertensive Rat: activity value,[3],0
same,"Cascade, Colon: activity value (ED50)",[4],0 (>10000)
same,Rat Uterus: activity value (ED50),[5],0 (>10)
same,Platelet Aggregation: activity value (ED50),[6],1 (>0.1 and ≤1.0)
same,"Cascade, Stomache: activity value (ED50)",[7],0 (>10000)
same,Gastric Secretion: activity value (% decrease in acidity),[8],0 (<26)
CCCCC[C@H](O)/C=C/[C@@H]1[C@@H](CCCCCCC(=O)O)[C@@H](O)C[C@H]1O [PGF1α],luteolytic effect,[9],act as luteolytic factors
same,steroidogenesis in the adrenal glands,[10],stimulate stereoidogenesis in the adrenal glands
CCCCC[C@H](O)/C=C/[C@H]1C=CC(=O)[C@@H]1CCCCCCC(=O)O [PGA1],synthesis of the growth hormone,[11],increases its synthesis
same,"gastric secretion, man",[12],exhibits similar activity in man
CCCCC[C@H](O)/C=C/[C@H]1[C@H](O)CC(=O)[C@@H]1CCCCCCC(=O)O [PGE1],transmission along motor pathways in the central nervous system,[13],retards
same,effect on tracheal smooth muscle,[14],relax
same,release of the growth hormone,[11],increase the release of the growth hormone
same,effect on smooth muscle of the vas deferens,[15],contracts the smooth muscle of the vas deferens
same,steroidogenesis in the adrenal glands,[10],stimulate stereoidogenesis in the adrenal glands
same,aggregation of blood platelets,[16],inhibits aggregation of blood platelets in vitro
same,"inhibition of human platelet aggregation, comparison with natural prostaglandin",[17],displays similar activity
